In general, pIC50 refers to the negative decadic logarithm of the IC50, by convention in mol/L.

For assay [1], the target named is IRAK4 auto-phosphorylation (Homo sapiens (Human), UniProt Q9NWZ3). The assay is described as follows: IRAK4 phosphorylation cell assay in IL-1β-stimulated Karpas-299 cells. The assay is classed as cell-based. The note with it: IL-1β 22.7 ng/mL, pIRAK4 (Thr345/Ser346), geometric mean of at least 2 experiments. On the procedure: IRAK4 Phosphorylation Cell Assay
The activation of IRAK4 by TLR or IL-1R ligands leads to IRAK4 auto-phosphorylation, which can be prevented by IRAK4 kinase inhibitors. The effect of IRAK4 inhibitor compounds on IRAK4 auto-phosphorylation was assessed in IL-1β-stimulated Karpas-299 cells as a measurement of cellular potency. Karpas-299 cells were cultured in RPMI 1640 (Gibco 61870-010) containing 10% FBS (Gibco #10270). Cells were plated at 2×10^4 cells per well in poly-D-lysine coated 384 well plates (Corning #356663) to which compounds had been added at various concentrations (10 point half log dose response with a final top concentration of 30 μM) using an Echo 655 (Labcyte Inc). Cells were centrifuged (250 g, 4 mins), incubated at 37° C. for 1 h, then stimulated with 22.7 ng/mL recombinant IL-1β (R&D Systems, #201-LB-025) at 37° C. for 10 mins, followed by fixation in 4% paraformaldehyde for 10 mins and permeabilization in ice-cold 70% MeOH for 30 mins. Cells were washed twice with phosphate-buffered saline (PBS) on a BlueWasher (BlueCatBio) then blocked with PBS containing 10% FBS for 20 mins. Blocking solution was removed with a BlueWasher and cells were stained with anti-pIRAK4 (Thr345/Ser346) (CST, #11927, 1:400) in blocking buffer with 0.05% Tween-20 for 1 h, then washed twice with PBS containing 0.05% Tween-20 on a BlueWasher, followed by staining with a Alexa 647-conjugated secondary anti-rabbit IgG antibody (CST, #4414, 1:2,000) and Hoechst 33342 (Sigma, 1:2,000) in blocking buffer with 0.05% Tween-20 for 30 mins. Finally, the cells were washed twice with PBS containing 0.05% Tween-20 and imaged on an ImageXpress Micro (Molecular Devices) with a 10× air objective using the appropriate filters. Images were analysed in Columbus (PerkinElmer) and the fluorescence intensity per cell from the secondary antibody was quantified. The quantified data were analysed in Genedata Screener 15 (Genedata AG). […] IC50 values are the geometric mean of at least 2 experiments.

The target of assay [2] is human recombinant IRAK4 protein (Homo sapiens (Human), UniProt Q9NWZ3). The assay is described as follows: IRAK4 enzyme assay (mass spectrometry readout). The assay is classed as biochemical. The note with it: 3 mM ATP, 0.2 nM enzyme; geometric mean of at least n=2, * single experiment. On the procedure: Potency of IRAK4 Inhibitor Compounds in IRAK4 Enzyme Assay
human recombinant IRAK4 protein, sequence (Q9NWZ3 whole entry): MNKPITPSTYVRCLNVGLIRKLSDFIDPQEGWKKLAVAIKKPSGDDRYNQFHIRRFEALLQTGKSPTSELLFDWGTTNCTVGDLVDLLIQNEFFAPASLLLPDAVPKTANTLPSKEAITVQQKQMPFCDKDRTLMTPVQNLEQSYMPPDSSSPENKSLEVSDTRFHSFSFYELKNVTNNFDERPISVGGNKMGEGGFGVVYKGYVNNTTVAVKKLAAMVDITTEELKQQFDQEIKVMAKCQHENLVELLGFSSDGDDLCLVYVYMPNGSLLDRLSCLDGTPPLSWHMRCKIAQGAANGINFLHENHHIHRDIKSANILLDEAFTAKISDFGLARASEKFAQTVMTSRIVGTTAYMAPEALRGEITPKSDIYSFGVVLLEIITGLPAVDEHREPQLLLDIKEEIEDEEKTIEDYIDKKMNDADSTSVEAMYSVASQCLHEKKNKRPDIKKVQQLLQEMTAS
The inhibitory activity of compounds against IRAK4 were determined in an enzymatic assay using mass spectrometry readout. Ten point half-log compound concentration response curves, with a top concentration of 1 μM or 10 μM, were generated from 10 mM stocks of compound solubilized in DMSO using an Echo 655 (Labcyte Inc) and added to 384 well assay plates (Greiner #781280). To the assay plates, 10 μL of human recombinant IRAK4 protein (Life Technologies #PV4002) diluted to a final concentration of 0.2 nM in assay buffer (50 mM Tris-HCl pH 7.4, 10 mM MgCl, 5 mM glutathione, 0.01% BSA, 3 mM ATP) was added. The enzyme was incubated with the compounds at room temperature for 15 minutes before a peptide substrate ([…], Innovagen custom synthesis, 10 mM in DMSO) was added to each well to a final concentration of 10 μM using an Echo 655 (Labcyte Inc). After two hours at room temperature, the reaction was stopped with 90 μL of 0.4% formic acid (Merck #33015). The unphosphorylated and phosphorylated peptide were measured by LC-MS/MS on a Waters TQ-S mass spectrometer. Peaks were integrated using the TargetLynx software and the ratios between phosphorylated and unphosphorylated peptides were calculated. Curves were fitted and compound potencies determined in Genedata Screener 15 (Genedata AG). Data presented are the geometric mean of at least n=2, or as denoted by an * are obtained from a single experiment.

Structures are written as SMILES. pIC50: −log10 of the molar value.

IRAK4 auto-phosphorylation, sequence (Q9NWZ3 whole entry): as above

With `COc1cc2nn(C3CCC4(CC3)COC(=O)N4C)cc2cc1C(=O)Nc1cnc2cccnn12` (single isomer, unassigned) [Example 75, N-(Imidazo[1,2-b]pyridazin-3-yl)-6-methoxy-2-(1-methyl-2-oxo-3-oxa-1-azaspiro[4.5]decan-8-yl)-2H-indazole-5-carboxamide], the pIC50 is 7.92 in assay [1] and 9.52 in assay [2].
On the same counts, the results for `CC1(O)CC2(CCC(n3cc4cc(C(=O)Nc5cnn6cccnc56)c(OC5CC5)cc4n3)CC2)C1` (single isomer, unassigned) [Example 16, 6-Cyclopropoxy-2-(2-hydroxy-2-methylspiro[3.5]nonan-7-yl)-N-(pyrazolo[1,5-a]pyrimidin-3-yl)-2H-indazole-5-carboxamide] are 7.11 and 9.22.
On the same counts, the results for `COc1cc2nn([C@H]3CC[C@H](N(C)C(=O)C[C@@H](C)O)CC3)cc2cc1C(=O)Nc1cnn2cccnc12` [Example 111, 2-((1R,4r)-4-((R)-3-Hydroxy-N-methylbutanamido)cyclohexyl)-6-methoxy-N-(pyrazolo[1,5-a]pyrimidin-3-yl)-2H-indazole-5-carboxamide] are 7.57 and 9.05.
Regarding `O=C(Nc1cnc2cccnn12)c1cc2cn([C@H]3CC[C@@H](O)CC3)nc2cc1OC1CC1` [Example 85, 6-Cyclopropoxy-2-((1s,4s)-4-hydroxycyclohexyl)-N-(imidazo[1,2-b]pyridazin-3-yl)-2H-indazole-5-carboxamide], the pIC50 in assay [1] was 7.30; in assay [2], 9.10.
As to `COc1cc2nn([C@@H]3CC[C@]4(CC(=O)N(C)C4)C[C@H]3C)cc2cc1C(=O)Nc1cnc2cccnn12` (relative stereo) [Example 72, rel-2-(5R,7R,8R)-2,7-Dimethyl-3-oxo-2-azaspiro[4.5]decan-8-yl)-N-(imidazo[1,2-b]pyridazin-3-yl)-6-methoxy-2H-indazole-5-carboxamide or rel-2-(5R,7S,8S)-2,7-Dimethyl-3-oxo-2-azaspiro[4.5]decan-8-yl)-N-(imidazo[1,2-b]pyridazin-3-yl)-6-methoxy-2H-indazole-5-carboxamide], the pIC50 was 8.15 in assay [1] and 9.40 in assay [2].
As for `O=C(Nc1cnc2cccnn12)c1cc2cn([C@H]3CC[C@H](O)CC3)nc2cc1OC1CC1` [Example 84, 6-Cyclopropoxy-2-((1r,4r)-4-hydroxycyclohexyl)-N-(imidazo[1,2-b]pyridazin-3-yl)-2H-indazole-5-carboxamide], the pIC50 in assay [1] was 7.40; in assay [2], 9.40.
For `COc1cc2nn([C@H]3CC[C@@H](O)C[C@@H]3C)cc2cc1C(=O)Nc1cnn2cccnc12` (relative stereo) [Example 41], the pIC50 is 6.48 in assay [1] and 7.84 in assay [2].
On to `COc1cc2nn([C@H]3CCC[C@@H](O)[C@H]3C)cc2cc1C(=O)Nc1cnc2cccnn12` (single isomer, unassigned) [Example 105], for which the pIC50 is 7.02 in assay [1] and 8.19 in assay [2].
For `COc1cc2nn(C3CCC4(CC3)COC(=O)N4C)cc2cc1C(=O)Nc1cnc2cccnn12` (single isomer, unassigned) [Example 74, N-(Imidazo[1,2-b]pyridazin-3-yl)-6-methoxy-2-(1-methyl-2-oxo-3-oxa-1-azaspiro[4.5]decan-8-yl)-2H-indazole-5-carboxamide], in that order: 7.10 and 8.57.
Take `COc1cc2nn([C@H]3CCC[C@@H](O)[C@@H]3C)cc2cc1C(=O)Nc1cnc2cccnn12` (single isomer, unassigned) [Example 109]: the pIC50 in assay [1] was 7.82; in assay [2] it was 9.22.
On the same counts, the results for `COc1cc2nn([C@H]3CC[C@H](N(C)C(=O)N4CC[C@@H](O)C4)CC3)cc2cc1C(=O)Nc1cnc2cccnn12` [Example 117, 2-((1R,4r)-4-((R)-3-Hydroxy-N-methylpyrrolidine-1-carboxamido)cyclohexyl)-N-(imidazo[1,2-b]pyridazin-3-yl)-6-methoxy-2H-indazole-5-carboxamide] are 7.66 and 9.52.
As for `C[C@H]1C[C@@H](O)CC[C@@H]1n1cc2cc(C(=O)Nc3cnn4cccnc34)c(OC3CC3)cc2n1` (single isomer, unassigned) [Example 44], the pIC50 in assay [1] was 7.38; in assay [2], 9.10.
On to `COc1cc2nn([C@H]3CC[C@H](n4nccn4)CC3)cc2cc1C(=O)Nc1cnc2cccnn12` [Example 103, 2-((1r,4r)-4-(2H-1,2,3-triazol-2-yl)cyclohexyl)-N-(imidazo[1,2-b]pyridazin-3-yl)-6-methoxy-2H-indazole-5-carboxamide], for which the negative logarithm of the IC50 (pIC50) in assay [1] is 7.77; in assay [2] it was 9.22.
`COc1cc2nn([C@H]3CC[C@H](N(C)C(=O)[C@@H](C)O)CC3)cc2cc1C(=O)Nc1cnc2cccnn12` [Example 95, 2-((1R,4r)-4-((R)-2-Hydroxy-N-methylpropanamido)cyclohexyl)-N-(imidazo[1,2-b]pyridazin-3-yl)-6-methoxy-2H-indazole-5-carboxamide]: the figures for the pIC50 in assay [1] and in assay [2] were 8.15 and 9.70, respectively.
For `COc1cc2nn([C@H]3CC[C@@H](N(C)C(C)=O)CC3)cc2cc1C(=O)Nc1cnn2cnccc12` [Example 24, 6-Methoxy-2-((1s,4s)-4-(N-methylacetamido)cyclohexyl)-N-(pyrazolo[1,5-c]pyrimidin-3-yl)-2H-indazole-5-carboxamide], the values for the pIC50 in assay [1] and in assay [2] were 6.18 and 7.08, respectively.
Consider `COc1cc2nn([C@H]3CC[C@@H](O)C[C@@H]3C)cc2cc1C(=O)Nc1cnc2cccnn12` [Example 90, 2-((1S,2S,4R)-4-hydroxy-2-methylcyclohexyl)-N-(imidazo[1,2-b]pyridazin-3-yl)-6-methoxy-2H-indazole-5-carboxamide], for which the figures for the pIC50 in assay [1] and in assay [2] were 7.00 and 8.28, respectively.
As to `COc1cc2nn([C@H]3CCC[C@H](O)[C@@H]3C)cc2cc1C(=O)Nc1cnc2cccnn12` (relative stereo) [Example 107, rel-2-(1S,2R,3S)-3-Hydroxy-2-methylcyclohexyl)-N-(imidazo[1,2-b]pyridazin-3-yl)-6-methoxy-2H-indazole-5-carboxamide], the pIC50 in assay [1] was 7.62; in assay [2], 9.05.
On the same counts, the results for `O=C(Nc1cnn2cccnc12)c1cc2cn([C@H]3CC[C@@H](O)CC3)nc2cc1OC1CC1` [Example 56] are 7.10 and 8.92.
As for `COc1cc2nn([C@@H]3CC[C@]4(CC(=O)N(C)C4)C[C@H]3C)cc2cc1C(=O)Nc1cnc2cccnn12` (relative stereo) [Example 71, rel-2-(5R,7R,8R)-2,7-Dimethyl-3-oxo-2-azaspiro[4.5]decan-8-yl)-N-(imidazo[1,2-b]pyridazin-3-yl)-6-methoxy-2H-indazole-5-carboxamide or rel-2-(5R,7S,8S)-2,7-Dimethyl-3-oxo-2-azaspiro[4.5]decan-8-yl)-N-(imidazo[1,2-b]pyridazin-3-yl)-6-methoxy-2H-indazole-5-carboxamide], the pIC50 in assay [1] was 7.52; in assay [2], 8.72.
In the case of `COc1cc2nn([C@H]3CC[C@@]4(CCC(=O)N4C)CC3)cc2cc1C(=O)Nc1cnc2cccnn12` [Example 1, N-(Imidazo[1,2-b]pyridazin-3-yl)-6-methoxy-2-((5r,8r)-1-methyl-2-oxo-1-azaspiro[4.5]decan-8-yl)-2H-indazole-5-carboxamide], the pIC50 in assay [1] is 8.30; in assay [2], 10.00.
